According to US20230047825A1, “ANTIMICROBIAL PEPTIDES” (priority 2019, published 2023):
Where a SMILES comes first, the peptide text is derived from it.

How the values were obtained:
[1] = Maximum Tolerated Dose (MTD) assessment, IV TID q8h: mortality, body weight, clinical observations; format: in vivo, mouse; design: key to Irritability / Hyperactivity / Inc. Startle / Inc. Touch / Dec. Startle Response / Dec. Touch Response / Inc. Exploration / Dec. Exploration / Pinna / Placing / Tremor / Dec. Spont. Activity / Straub Tail / Reactivity / Righting / Ataxia / Convulsion C.T.C-T / Low Limb Post / Abdominal Tone / Limb Tone / Grip Strength / Salivation F.V. / Lacrimation / Diarrhea / Body Temperature / Piloerection / Inc. Palpebral Size / Dec. Palpebral Size / Others / Death: “−” no effects; “±”: Slight to moderate effects; +: Severe effects; “C.”: Cyanosis; “D.”: Depth; E: Edema; conditions: for Dec. Exploration / Dec. Startle Response / Dec. Touch Response / Hyperactivity / Inc. Exploration / Inc. Startle / Inc. Touch / Irritability / Pinna / Placing: BEHAVIORAL; for Ataxia / Convulsion C.T.C-T / Dec. Spont. Activity / Grip Strength / Limb Tone / Low Limb Post / Reactivity / Righting / Straub Tail / Tremor / Abdominal Tone: NEUROLOGIC
Description: Tolerability analysis was conducted to determine the upper limit of D-PLEUROCIDIN-KR dosage. Test article solutions were intravenously (IV) administered to immunocompetent ICR mice with the dose schedule and concentrations indicated in the study design in the table below.
The animals were not infected. Doses were IV administered thrice (TID) with 8 h intervals (q8h) between doses. Animals were humanely euthanized after 3 days of the last treatment or at humane endpoints.
The MTD assessment was performed with immunocompetent female ICR mice, weighing 22 f 2 g. All animals were specific pathogen free.
Test articles were administered to animals by IV injections following the dose schedule, volumes, and concentrations indicated the Table above for MTD study. […] Animals were humanely euthanized if severe acute toxicity was observed during the experimental period.
The adverse effects were monitored at 5 minutes via cage-side observation after each subsequent IV administration on Day 1. Animals were observed again for mortality at 72 h after the last treatment. Body weights were recorded before each treatment and at 72 h after the last treatment. If overt toxicity was observed after the 1st or 2nd dose of a group, the 2nd or 3rd dose of that group was not administered.
Any adverse events observed were summarized. List of scores from observation assessments were also recorded.

[2] = tested on: panel of Gram-negative or Gram-positive pathogens; conditions: RPMI (5% FCS); Gram-negative isolates, all but the P. aeruginosa isolates
Description: MICs were determined on the same plates as the FICs to increase reproducibility.
Methods: The natural AMP (termed AMP1) was modified to produce synthetic variants, AMPs 1a, 2a, 2b, 3a and 3b. Minimum inhibitory concentrations (MICs) were determined using the microbroth dilution assay with Mueller Hinton broth (MHB) or RPMI (with 5% FBS) and stability in serum was tested by conducting MICs in MHB containing 10% FBS. Synergy experiments were performed following a checkerboard protocol. Cytotoxicity was tested against HEK293 and HeLa immortalised human cell-lines using the XTT viability stain and by quantifying haemolysis of human red blood cells. Patch clamp analysis was performed using the Port-a-Patch® automated patch-clamp system on DPhPE/DPhPG (model for a Gram-negative plasma membrane) or DPhPG (Gram-positive) model membranes challenged with peptide. The murine lung infection model was performed using the agar bead model with Staphylococcus aureus strain NCTC 13616 (EMRSA-15).

[3] = AUTONOMIC, 10 mg/kg IV, 5 minutes after 1st dosing, ICR mice, animals No. 1-4
[4] = 5 mg/kg IV, 5 minutes after 1st dosing, ICR mice, animals No. 1-4
[5] = 10 mg/kg IV, 5 minutes after 1st dosing, ICR mice, animals No. 1-4
[6] = 10 mg/kg IV, 5 minutes after 1st dosing, ICR mice, animals No. 1-4, 10 mg/kg

CC(C)C[C@@H](NC(=O)[C@@H](Cc1ccc(O)cc1)NC(=O)[C@@H](Cc1c[nH]cn1)NC(=O)[C@H](NC(=O)[C@@H](CC(C)C)NC(=O)[C@@H](C)NC(=O)[C@@H](C)NC(=O)[C@@H](CCCNC(=N)N)NC(=O)CNC(=O)[C@H](NC(=O)[C@@H](Cc1c[nH]cn1)NC(=O)[C@@H](CCCNC(=N)N)NC(=O)CNC(=O)[C@H](NC(=O)[C@@H](Cc1c[nH]cn1)NC(=O)[C@@H](C)NC(=O)[C@@H](C)NC(=O)[C@@H](CCCNC(=N)N)NC(=O)[C@@H](CCCNC(=N)N)NC(=O)[C@@H](Cc1ccccc1)NC(=O)[C@@H](Cc1ccccc1)NC(=O)[C@@H](CO)NC(=O)CNC(=O)[C@@H](Cc1c[nH]c2ccccc12)NC(=O)CN)C(C)C)C(C)C)[C@H](C)O)C(N)=O [D-pleurocidin-KR] (HELM PEPTIDE1{G.[dW].G.[dS].[dF].[dF].[dR].[dR].[dA].[dA].[dH].[dV].G.[dR].[dH].[dV].G.[dR].[dA].[dA].[dL].[dT].[dH].[dY].[dL].[am]}$$$$V2.0; N-terminus assumed)
−: Dec. Palpebral Size [1, 3] | Diarrhea [1, 3] | Inc. Palpebral Size [1, 3] | Lacrimation [1, 3] | Piloerection [1, 3] | Salivation F.V. [1, 3] | Dec. Exploration [1, 4] | Dec. Startle Response [1, 4] | Dec. Touch Response [1, 4] | Hyperactivity [1, 4] | Inc. Exploration [1, 4] | Inc. Startle [1, 4] | Inc. Touch [1, 4] | Irritability [1, 4] | Pinna [1, 4] | Placing [1, 4] | Hyperactivity [1, 5] | Inc. Exploration [1, 5] | Inc. Startle [1, 5] | Inc. Touch [1, 5] | Irritability [1, 5] | Ataxia [1, 4] | Convulsion C.T.C-T [1, 4] | Dec. Spont. Activity [1, 4] | Grip Strength [1, 4] | Limb Tone [1, 4] | Low Limb Post [1, 4] | Reactivity [1, 4] | Righting [1, 4] | Straub Tail [1, 4] | Tremor [1, 4] | Convulsion C.T.C-T [1, 5] | Reactivity [1, 5] | Righting [1, 5] | Straub Tail [1, 5] | Tremor [1, 5]
− and ±: Dec. Startle Response [1, 6] | Abdominal Tone ([1]; 5 mg/kg IV, 5 minutes after 1st dosing, ICR mice, animals No. 1-4, 5 mg/kg)
C±: Skin Color [1, 3]
E: Others [1, 3]
± and +: Dec. Exploration [1, 6] | Dec. Touch Response [1, 6] | Pinna [1, 6]
± and −: Placing [1, 6] | Grip Strength [1, 6] | Low Limb Post [1, 6]
≤ 4 µg/mL: effective concentration (MIC) in RPMI [2]
− and + and ±: Abdominal Tone [1, 6]
+: Death ([1]; AUTONOMIC, 30 mg/kg IV, 5 minutes after 1st dosing, ICR mice, animals No. 1-4) | Limb Tone [1, 5]
±: Ataxia [1, 5] | Dec. Spont. Activity [1, 5]
approximately 20 fold: in vivo therapeutic index ([1]; before dose optimisation, tolerated dose vs effective dose)
D±: Respiration [1, 3]
